The test deals with fokalen Ischämie in Mäusen. Put plainly: Mouse model of focal ischemia (30 min MCAo/reperfusion), overall outcome. In kind it is in vivo, Mäuse. The following applies: Mirtazapin 20 mg/kg i.p. starting 7 days after MCAo/reperfusion. From the text:
Die erfindungsgemäßen neuroprotektiven und neuroregenerativen/neuroplastischen Effekte von SSRI auf neuronale Krankheiten wurde anhand eines anerkannten Tiermodells zur fokalen Ischämie in Mäusen untersucht. […] Tag nach der Induktion der Ischämie einsetzte.
Anschließend wurden die SRRI Effekte auf das Volumen der ischämischen Läsionen ausgewertet. Ferner wurden die Tiere Standard-Verhaltenstests unterzogen. Zudem wurden die Konzentrationen ausgewählter Neurotransmitter erfaßt.
Die Tierversuche wurden nach den Maßgaben des Tierschutzgesetzes in Übereinstimmung mit institutionellen und internationalen Richtlinien durchgeführt. Männliche 12936/SvEv-Mäuse (18-20 g, Bundesamt für Gesundheitsschutz Berlin) wurden in Gruppen von 4-5 Mäusen pro Käfig in Standardlaborkäfigen bei einer Umgebungstemperatur von 20-21°C bei einem 12 h-Licht-Dunkel-Rhythmus (8.00 Uhr/20.00 Uhr) mit freiem Zugang zu Futter und Wasser gehalten. Die Narkose der Mäuse erfolgte mit 1% Isofluran in 69% N20 und 30% 02 mit einem Narkoseverdampfer. Die Tiere wurden einer 30 min Fliamentokklusion der Arteria cerebri media (MCAo) unterworfen, wobei die Körpertemperatur und der regionale cerebrale Blutfluss wie beschrieben gemessen wurden (Endres et al., 1998). […]

As to `CN1CCN2c3ncccc3Cc3ccccc3C2C1` (racemic) [Mirtazapin, (RS)-(±)-2-Methyl-1,2,3,4,10,14b-hexahydropyrazino [2,1-a]pyrido[2,3-c][2]benzazepin], the “Ergebnisse (overall outcome in the MCAo model)” value is “entsprachen denjenigen, die mit Citalopram erreicht wurden”.

(Values after patent publication EP2008653A1, “Serotonergic compounds for treating neuronal illnesses” (Charité-Universitätsmedizin Berlin, priority 2007, dated 2008).)
